In brackets after ≈: the same amount, converted by molar mass.
Experiments:
P. aeruginosa PAO1 = assay: microbe, parasite or virus in culture; conditions: Pseudomonas aeruginosa, PAO1, 16 h, read-out: MIC PAO1 —
Description: (§1) Susceptibilities of E. coli and P. aeruginosa cells to different classes of antibiotics were determined by two-fold broth dilution method [1] with following modifications. Cells were grown in Luria-Bertani (LB) broth (tryptone 10 g/L, yeast extract 5 g/L and NaCl 5 g/L) with appropriate selection markers as needed, at 37° C. with shaking at 200 rpm. When needed, at OD600˜0.3, either L-arabinose (final concentration 0.1%) or IPTG (final concentration 0.1 mM) were added to induce the expression of the pore and cells were further incubated until OD600 reached 1.0. MICs of various antimicrobial agents were measured in 96-well micro-titer plates. For this purpose, exponentially growing cells were inoculated at a density of 10^5 cells/ml into wells containing LB medium in the presence of two-fold increasing concentrations of drugs under investigation at constant inducer concentration of 0.1% arabinose for E. coli or 0.1 mM IPTG for P. aeruginosa strains. Cell growth was determined visually or using Spark 10M microplate reader (Tecan) after incubation of the micro-titer plates at 37° C. for 16 h.
(§2) For this purpose, induced cells were dispensed into 96-well microplates with LB medium containing two-fold dilutions of an antibiotic of interest and a respective concentration of an inducer.

[1] = system: P. aeruginosa Δ3-Pore (GKCW116, FhuAΔC/Δ4L pore); assay: MIC, two-fold broth dilution, P. aeruginosa Δ3-Pore; conditions: P. aeruginosa Δ3-Pore; 0.1 mM IPTG; LB, 37° C., 16 h
Description: as §1, §2

[2] = system: P. aeruginosa PAO1Δ3 (Δ3); conditions: P. aeruginosa Δ3 without pore; 0.1 mM IPTG; LB, 37° C., 16 h
Description: as §1, §2

[3] = system: P. aeruginosa PAO1, PAO1-Pore, Δ3, Δ3-Pore; assay: Fold MIC change between P. aeruginosa strains (OM barrier, efflux); type: cell-based, Pseudomonas aeruginosa; conditions: P. aeruginosa
[4] = system: E. coli WT, WT-Pore, ΔTolC, ΔTolC-Pore; type: cell-based, Escherichia coli; conditions: E. coli
[5] = system: E. coli ΔTolC-Pore (GKCW103, FhuAΔC/Δ4L pore); conditions: 0.1% arabinose, LB, 37° C., 16 h
Description: as §1, §2

E. coli GD102 (ΔTolC) = conditions: E. coli ΔTolC without pore; 0.1% arabinose; LB, 37° C., 16 h
Description: as §1, §2

[6] = system: E. coli WT-Pore (GKCW101, FhuAΔC/Δ4L pore); assay: microbe, parasite or virus in culture; conditions: Escherichia coli, 16 h, read-out: MIC BW 25113 (WT) Pore
Description: as §1, §2

E. coli BW 25113 (WT) = assay: microbe, parasite or virus in culture; conditions: Escherichia coli, 16 h, read-out: MIC BW 25113 (WT) —
Description: as §1, §2

SMILES | MIC (P. aeruginosa PAO1) | MIC Δ3 Pore [1] | MIC Δ3 — [2] | Fold MIC change, Efflux, PAO1-Pore/Δ3-Pore [3] | Fold MIC change, Efflux, PAO1/Δ3 [3] | Fold MIC change, OM barrier, PAO1/PAO1-Pore [3] | Fold MIC change, OM barrier, Δ3/Δ3-Pore [3] | Fold MIC change, Efflux, WT-Pore/ΔTolC-Pore [4] | Fold MIC change, Efflux, WT/ΔTolC [4] | Fold MIC change, OM barrier, WT/WT-Pore [4] | Fold MIC change, OM barrier, ΔTolC/ΔTolC-Pore [4] | MIC GD102 (ΔTolC) Pore [5] | MIC GD102 (ΔTolC) — (E. coli GD102 (ΔTolC)) | MIC [6] | MIC (E. coli BW 25113 (WT))
NCC[C@H](O)C(=O)N[C@@H]1C[C@H](N)[C@@H](O[C@H]2O[C@H](CN)[C@@H](O)[C@H](O)[C@H]2O)[C@H](O)[C@H]1O[C@H]1O[C@H](CO)[C@@H](O)[C@H](N)[C@H]1O [Amikacin] | 1 µg/mL (≈ 1.71 µM) | 1 µg/mL (≈ 1.71 µM) | 1 µg/mL (≈ 1.71 µM) | 2 fold | 1 fold | 0.5 fold | 1 fold | 1 fold | 1 fold | 1 fold | 1 fold | 2 µg/mL (≈ 3.42 µM) | 2 µg/mL (≈ 3.42 µM) | 2 µg/mL (≈ 3.42 µM) | 2 µg/mL (≈ 3.42 µM)
CC1(C)S[C@@H]2[C@H](NC(=O)[C@H](N)c3ccccc3)C(=O)N2[C@H]1C(=O)O [Ampicillin] |  |  |  |  |  |  |  |  |  |  |  | 0.5 µg/mL (≈ 1.43 µM) | 8 µg/mL (≈ 22.9 µM) | 2 µg/mL (≈ 5.72 µM) | 16 µg/mL (≈ 45.8 µM)
CC1(C)S[C@@H]2[C@H](NC(=O)C(C(=O)O)c3ccccc3)C(=O)N2[C@H]1C(=O)O (some centres unmarked) [Carbenicillin] | 32 µg/mL (≈ 84.6 µM) | 0.063 µg/mL (≈ 0.166 µM) | 0.5 µg/mL (≈ 1.32 µM) | 32 fold | 64 fold | 16 fold | 8 fold | 1 fold | 4 fold | 8 fold | 2 fold | 0.5 µg/mL (≈ 1.32 µM) | 1 µg/mL (≈ 2.64 µM) | 0.5 µg/mL (≈ 1.32 µM) | 4 µg/mL (≈ 10.6 µM)
O=C(N[C@H](CO)[C@H](O)c1ccc([N+](=O)[O-])cc1)C(Cl)Cl [Chloramphenicol] | 8 µg/mL (≈ 24.8 µM) | 0.125 µg/mL (≈ 0.387 µM) | 1 µg/mL (≈ 3.09 µM) | 16 fold | 8 fold | 4 fold | 8 fold | 4 fold | 4 fold | 1 fold | 1 fold | 0.5 µg/mL (≈ 1.55 µM) | 0.5 µg/mL (≈ 1.55 µM) | 2 µg/mL (≈ 6.19 µM) | 2 µg/mL (≈ 6.19 µM)
Cc1onc(-c2ccccc2Cl)c1C(=O)N[C@@H]1C(=O)N2[C@@H]1SC(C)(C)[C@@H]2C(=O)O [Cloxacillin] | > 2050 µg/mL | 8 µg/mL (≈ 18.4 µM) | 128 µg/mL (≈ 294 µM) | 64 fold | ≧8 fold | ≧4 fold | 16 fold | 128 fold | 512 fold | 4 fold | 1 fold | 1 µg/mL (≈ 2.29 µM) | 1 µg/mL (≈ 2.29 µM) | 128 µg/mL (≈ 294 µM) | 512 µg/mL (≈ 1170 µM)
C[C@H]1COc2c(N3CCN(C)CC3)c(F)cc3c(=O)c(C(=O)O)cn1c23 [Levofloxacin] | 0.125 µg/mL (≈ 0.346 µM) |  |  |  |  |  |  |  |  |  |  | 0.004 µg/mL (≈ 0.0111 µM) | 0.004 µg/mL (≈ 0.0111 µM) | 0.016 µg/mL (≈ 0.0443 µM) | 
CCC[C@@H]1C[C@@H](C(=O)N[C@@H]([C@H]2O[C@H](SC)[C@H](O)[C@@H](O)[C@H]2O)[C@@H](C)O)N(C)C1 [Lincomycin] |  |  |  |  |  |  |  | 8 fold | 8 fold | 1 fold | 1 fold | 64 µg/mL (≈ 157 µM) | 64 µg/mL (≈ 157 µM) | 512 µg/mL (≈ 1260 µM) | 512 µg/mL (≈ 1260 µM)
CCn1cc(C(=O)O)c(=O)c2ccc(C)nc21 [Nalidixic acid] | 64 µg/mL (≈ 276 µM) | 2 µg/mL (≈ 8.61 µM) | 8 µg/mL (≈ 34.4 µM) | 16 fold | 8 fold | 2 fold | 4 fold | 8 fold | 8 fold | 1 fold | 1 fold | 1 µg/mL (≈ 4.31 µM) | 1 µg/mL (≈ 4.31 µM) | 8 µg/mL (≈ 34.4 µM) | 8 µg/mL (≈ 34.4 µM)
CO[C@@H]1[C@@H](OC(N)=O)[C@@H](O)[C@H](Oc2ccc3c(O)c(NC(=O)c4ccc(O)c(CC=C(C)C)c4)c(=O)oc3c2C)OC1(C)C [Novobiocin] | 512 µg/mL (≈ 836 µM) | 1 µg/mL (≈ 1.63 µM) | 32 µg/mL (≈ 52.2 µM) | 64 fold | 16 fold | 8 fold | 32 fold | 256 fold | 256 fold | 4 fold | 4 fold | 0.125 µg/mL (≈ 0.204 µM) | 0.5 µg/mL (≈ 0.816 µM) | 32 µg/mL (≈ 52.2 µM) | 128 µg/mL (≈ 209 µM)
Nc1ccc2cc3ccc(N)cc3nc2c1 [Proflavine] |  |  |  |  |  |  |  | 4 fold | 4 fold | 1 fold | 1 fold | 8 µg/mL (≈ 38.2 µM) | 8 µg/mL (≈ 38.2 µM) | 32 µg/mL (≈ 153 µM) | 32 µg/mL (≈ 153 µM)
[H]/N=C(/N)N[C@H]1[C@H](O)[C@@H](O)[C@H](O[C@@H]2O[C@@H](C)[C@](O)(C=O)[C@H]2O[C@@H]2O[C@@H](CO)[C@H](O)[C@@H](O)[C@@H]2NC)[C@@H](N/C(N)=N\[H])[C@@H]1O [Streptomycin] |  |  |  |  |  |  |  | 1 fold | 0.5 fold | 1 fold | 2 fold | 2 µg/mL (≈ 3.44 µM) | 4 µg/mL (≈ 6.88 µM) | 2 µg/mL (≈ 3.44 µM) | 2 µg/mL (≈ 3.44 µM)
CN(C)[C@@H]1C(O)=C(C(N)=O)C(=O)[C@@]2(O)C(O)=C3C(=O)c4c(O)cccc4[C@@](C)(O)[C@H]3C[C@@H]12 [Tetracycline] | 4 µg/mL (≈ 9 µM) | 0.031 µg/mL (≈ 0.0698 µM) | 2 µg/mL (≈ 4.5 µM) | 16 fold | 2 fold | 8 fold | 64 fold | 2 fold | 4 fold | 2 fold | 1 fold | 0.125 µg/mL (≈ 0.281 µM) | 0.125 µg/mL (≈ 0.281 µM) | 0.25 µg/mL (≈ 0.563 µM) | 0.5 µg/mL (≈ 1.13 µM)
